In US20230000936A1, “A[…] ITCHING […] C[…]” (Demetrix, Inc., priority 2021, published 2023):
Entries after “also recorded” stand apart in the source; their conditions may differ.

Key:
Assay type in all cases: cell-based
CHRM2 [1] = target: T1, CHRM2 (Homo sapiens, UniProt P08172); experiment: IC50 antagonist activity screen, PathHunter β-Arrestin, CHRM2; conditions: for antagonism of CHRM2 (in words): IC50 data; for maximum inhibition (antagonism) CHRM2: maximum of IC50 curve
T1 sequence (P08172 1-466): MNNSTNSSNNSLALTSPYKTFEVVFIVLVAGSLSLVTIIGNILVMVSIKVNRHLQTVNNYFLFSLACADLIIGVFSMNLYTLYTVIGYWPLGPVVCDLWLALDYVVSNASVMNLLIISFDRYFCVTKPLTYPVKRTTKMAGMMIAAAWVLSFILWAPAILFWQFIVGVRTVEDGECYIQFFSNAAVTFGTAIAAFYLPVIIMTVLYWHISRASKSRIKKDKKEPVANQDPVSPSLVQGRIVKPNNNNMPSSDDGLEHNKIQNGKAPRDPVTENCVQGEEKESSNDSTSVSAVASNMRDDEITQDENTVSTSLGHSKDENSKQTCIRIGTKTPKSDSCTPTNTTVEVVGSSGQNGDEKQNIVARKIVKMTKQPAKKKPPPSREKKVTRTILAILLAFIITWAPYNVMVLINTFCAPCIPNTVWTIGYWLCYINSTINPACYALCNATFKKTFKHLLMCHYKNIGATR
Procedure: (§1) In each of the antagonist assays, PathHunter® cell lines were removed from a freezer stock and seeded at a volume of 20 μL into white walled, 384-well microplates and incubated at 37° C. Each cell was pre-incubated with an antagonist followed by an agonist challenge at the EC80 concentration. Cells were then diluted to generate a 5× sample in assay buffer. 5 μL of the 5× sample was then added to cells and incubated at 37° C. for 30 minutes. Finally, 5 μL of 6×EC80 agonist in assay buffer were added to the cells and incubated at 37° C. for 90 minutes or 180 minutes. The assay signal was generated through addition of 12.5 μL or 15 μL (50% V/V) of a detection reagent cocktail followed by a one hour incubation time at room temperature. Microplates were read following signal generation with a PerkinElmer Envision™ (PerkinElmer Inc., Waltham, Mass.) for chemiluminescent signal detection. Reactivity was analyzed using the CBIS data analysis suite (ChemInnovation, CA) where RLU refers to the raw measured values. The percent inhibition was calculated using the formula: % Inhibition=100%*(1−mean RLU of test sample−mean RLU of control)/(mean RLU of EC80 control−mean RLU of vehicle control).
(§2) IC50 curves were measured using the same GPCR assay, PathHunter® β-Arrestin from Eurofins DiscoverX Products (Fremont, Calif.), as the GPCR reactivity screen. As used herein, strong activity against a receptor is considered a maximum activity of about 42% or higher. Higher results for antagonism against CHRM2, EDGE, and MRGPRX2 are considered better. It is further considered better when a cannabinoid inhibits more than one of the receptors.

MRGPRX2 [2] = target: T2, MRGPRX2 (Homo sapiens, UniProt Q96LB1); experiment: IC50 antagonist activity screen, PathHunter β-Arrestin, MRGPRX2; conditions: for antagonism of MRGPRX2 (in words): IC50 data; for maximum inhibition (antagonism) MRGPRX2: maximum of IC50 curve
T2 sequence (Q96LB1 1-330): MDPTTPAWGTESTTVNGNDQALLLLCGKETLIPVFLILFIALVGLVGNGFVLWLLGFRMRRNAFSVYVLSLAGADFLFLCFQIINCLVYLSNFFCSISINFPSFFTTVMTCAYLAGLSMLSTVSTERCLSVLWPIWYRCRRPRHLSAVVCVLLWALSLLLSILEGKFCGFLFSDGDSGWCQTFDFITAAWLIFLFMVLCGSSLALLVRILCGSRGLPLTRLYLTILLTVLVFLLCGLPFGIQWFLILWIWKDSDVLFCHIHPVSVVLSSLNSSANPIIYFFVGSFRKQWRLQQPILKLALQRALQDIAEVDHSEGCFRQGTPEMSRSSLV
Procedure: as §1, §2

EDG3 [3] = target: T3, EDG3 (Homo sapiens, UniProt Q99500); experiment: IC50 antagonist activity screen, PathHunter β-Arrestin, EDG3; conditions: for antagonism of EDG3 (in words): IC50 data; for maximum inhibition (antagonism) EDG3: maximum of IC50 curve
Procedure: as §1, §2

MRGPRX2 [4] = target: T2, MRGPRX2; experiment: GPCR reactivity screen, PathHunter β-Arrestin, antagonist assay MRGPRX2; conditions: for antagonist activity against MRGPRX2 (in words): GPCR reactivity screen; for MRGPRX2 (Antagonist) percent inhibition: antagonist mode, agonist challenge at EC80
Procedure: (§3) To evaluate the role specific cannabinoid compounds play in the neurological signaling pathway for itching, a GPCR reactivity assay was performed to determine the reactivity of 19 cannabinoid compounds to each of CHRM2, EDG3, and MRGPRX2. The evaluated cannabinoid compounds were: CBN, THCV, CBDVA, CBG, CBL, CBC, CBDV, CBDA, CBD, CBGA, (+)-CBD, CBG-C4, CBD-C1, CBD-C2, CBGV, CBGA-C4, CBGVA, CBCA, and CBLA. Acetylcholine was used as the control for CHRM2, sphingosine-1-phosphate was used as the control for EDG3; and cortistatin 14 was used as the control for MRGPRX2.
as §1
(§4) As used herein, strong activity against a receptor is considered a percent activity of about 42% or higher. Higher results for antagonism against CHRM2, EDGE, and MRGPRX2 are considered better. It is further considered better when a cannabinoid inhibits more than one of the receptors.

MRGPRX2 [5] = target: T2, MRGPRX2; experiment: GPCR reactivity screen, PathHunter β-Arrestin, agonist assay MRGPRX2; conditions: agonist mode; control cortistatin 14
Procedure: as §3
(§5) A total of six assays were run. Specifically, agonist and antagonist assays were run for each of CHRM2, EDG3, and MRGPRX2. In each of the three agonist assays, PathHunter® cell lines were removed from a freezer stock and seeded at a volume of 20 μL into white walled, 384-well microplates and incubated at 37° C. Each cell was incubated with a sample to induce a response and then diluted to generate a 5× sample in assay buffer. 5 μL of the 5× sample was then added to cells and incubated at 37° C. for 90 or 180 minutes. The final assay concentration was 1%. The assay signal was generated through addition of 12.5 μL or 15 μL (50% V/V) of a detection reagent cocktail followed by a one hour incubation time at room temperature. Microplates were read following signal generation with a PerkinElmer Envision™ (PerkinElmer Inc., Waltham, Mass.) for chemiluminescent signal detection. Reactivity was analyzed using the CBIS data analysis suite (ChemInnovation, CA) where RLU refers to the raw measured values. The percent activity was then calculated using the formula: % Activity=100%*(mean RLU of test sample−mean RLU of control)/(mean max control ligand−mean RLU of vehicle control).
as §4

CHRM2 [6] = target: T1, CHRM2; experiment: GPCR reactivity screen, PathHunter β-Arrestin, agonist assay CHRM2; design: concentration or dose not given beside the values; conditions: agonist mode; control acetylcholine
Procedure: as §3, §5, §4

CHRM2 [7] = target: T1, CHRM2; experiment: GPCR reactivity screen, PathHunter β-Arrestin, antagonist assay CHRM2; conditions: for antagonist activity against CHRM2 (in words): GPCR reactivity screen; for CHRM2 (Antagonist) percent inhibition: antagonist mode, agonist challenge at EC80
Procedure: as §3, §1, §4

EDG3 [8] = target: T3, EDG3; experiment: GPCR reactivity screen, PathHunter β-Arrestin, agonist assay EDG3; design: concentration or dose not given beside the values; conditions: agonist mode; control sphingosine-1-phosphate
Procedure: as §3, §5, §4

EDG3 [9] = target: T3, EDG3; experiment: GPCR reactivity screen, PathHunter β-Arrestin, antagonist assay EDG3; conditions: for EDG3 (Antagonist) percent inhibition: antagonist mode, agonist challenge at EC80; for antagonist activity against EDG3 (in words): GPCR reactivity screen
Procedure: as §3, §1, §4

T3 sequence (Q99500 whole entry): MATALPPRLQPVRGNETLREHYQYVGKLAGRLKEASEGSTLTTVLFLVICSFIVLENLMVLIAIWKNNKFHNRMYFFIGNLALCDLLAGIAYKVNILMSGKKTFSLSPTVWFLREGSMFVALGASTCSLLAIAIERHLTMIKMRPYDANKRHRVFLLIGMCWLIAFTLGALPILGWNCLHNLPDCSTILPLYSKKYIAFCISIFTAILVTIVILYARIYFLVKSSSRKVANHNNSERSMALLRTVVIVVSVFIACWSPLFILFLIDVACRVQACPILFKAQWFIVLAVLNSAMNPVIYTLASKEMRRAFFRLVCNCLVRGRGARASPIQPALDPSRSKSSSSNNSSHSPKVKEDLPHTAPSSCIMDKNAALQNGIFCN

| SMILES | antagonism of CHRM2 (in words) (CHRM2 [1]) | maximum inhibition (antagonism) CHRM2 (CHRM2 [1]) | antagonism of MRGPRX2 (in words) (MRGPRX2 [2]) | maximum inhibition (antagonism) MRGPRX2 (MRGPRX2 [2]) | antagonism of EDG3 (in words) (EDG3 [3]) | maximum inhibition (antagonism) EDG3 (EDG3 [3]) | antagonist activity against MRGPRX2 (in words) (MRGPRX2 [4]) | MRGPRX2 (Antagonist) percent inhibition (MRGPRX2 [4]) | MRGPRX2 (Agonist) percent activity (MRGPRX2 [5]) | CHRM2 (Agonist) percent activity (CHRM2 [6]) | antagonist activity against CHRM2 (in words) (CHRM2 [7]) | CHRM2 (Antagonist) percent inhibition (CHRM2 [7]) | EDG3 (Agonist) percent activity (EDG3 [8]) | EDG3 (Antagonist) percent inhibition (EDG3 [9]) | antagonist activity against EDG3 (in words) (EDG3 [9]) |
| --- | --- | --- | --- | --- | --- | --- | --- | --- | --- | --- | --- | --- | --- | --- | --- |
| CCCCCCCc1cc(O)c(C/C=C(\C)CCC=C(C)C)c(O)c1C(=O)O [CBGA-C7, cannabigerolic acid heptyl] | do not exhibit an antagonistic effect | 4% | do not exhibit an antagonistic effect | 37% | do not exhibit an antagonistic effect | 30% | – | – | – | – | – | – | – | – | – |
| C=C(C)[C@@H]1CCC(C)=C[C@H]1c1c(O)cc(CCCCCC)cc1O [CBD-C6, cannabidol hexyl] | – | 64% | – | 98% | – | 11% | – | – | – | – | – | – | – | – | – |
| CCCCCc1cc(O)c2c(c1)OC1(C)CCC3C1C2C3(C)C (centres unmarked) [CBL, cannabicyclol] | – | 47% | – | 81% | – | – | antagonist activity | 82% | 11% | 13% | antagonist activity | 84% | −1% | 9% | – |
| CCCCCCc1cc(O)c(C/C=C(\C)CCC=C(C)C)c(O)c1C(=O)O [CBGA-C6, cannabigerolic acid hexyl] | do not exhibit an antagonistic effect | 6% | do not exhibit an antagonistic effect | 13% | do not exhibit an antagonistic effect | 33% | – | – | – | – | – | – | – | – | – |
| C=C(C)[C@@H]1CCC(C)=C[C@H]1c1c(O)cc(CCCCCCCCC)cc1O [CBD-C9, cannabidol nonyl] | remaining as an antagonist | 90% | remaining as an antagonist | 96% | did not act as an antagonist | 0% | – | – | – | – | – | – | – | – | – |
| CCCCCCc1cc(O)c(C/C=C(\C)CCC=C(C)C)c(O)c1 [CBG-C6, cannabigerol hexyl] | – | 0% | – | 66% | – | 15% | – | – | – | – | – | – | – | – | – |
| C=C(C)[C@@H]1CCC(C)=C[C@H]1c1c(O)cc(CCC)cc1O [CBDV, cannabidivarin] | – | 27% | – | 59% | – | – | antagonist activity | 71% | 3% | 3% | – | 34% | 1% | 24% | – |
| CCCCCCCCCc1cc(O)c(C/C=C(\C)CCC=C(C)C)c(O)c1 [CBG-C9, cannabigerol nonyl] | – | 32% | – | 100% | – | 55% | – | – | – | – | – | – | – | – | – |
| C=C(C)[C@@H]1CCC(C)=C[C@H]1c1c(O)cc(CCCCCCC)cc1O [CBD-C7, cannabidol heptyl] | – | 90% | – | 98% | – | 20% | – | – | – | – | – | – | – | – | – |
| CCCCCCCCCc1cc(O)c(C/C=C(\C)CCC=C(C)C)c(O)c1C(=O)O [CBGA-C9, cannabigerolic acid nonyl] | – | 11% | – | 56% | – | 58% | – | – | – | – | – | – | – | – | – |
| CCCCCCCc1cc(O)c(C/C=C(\C)CCC=C(C)C)c(O)c1 [CBG-C7, cannabigerol heptyl] | – | 10% | – | 99% | – | 32% | – | – | – | – | – | – | – | – | – |
| C=C(C)[C@@H]1CCC(C)=C[C@H]1c1c(O)cc(CC)cc1O [CBD-C2, cannabidol-C2] | – | – | – | 43% | – | – | do not exhibit an antagonistic effect; also recorded: did not exhibit antagonistic effects | 31% | 1% | 1% | do not exhibit an antagonistic effect; also recorded: did not exhibit antagonistic effects | 21% | 1% | 20% | do not exhibit an antagonistic effect; also recorded: did not exhibit antagonistic effects |
| CCCc1cc(O)c2c(c1)OC(C)(C)[C@@H]1CCC(C)=C[C@@H]21 [THCV, tetrahydrocannabivarin] | – | 0% | inhibition was not observed | 21% | – | – | do not exhibit an antagonistic effect; also recorded: antagonist activity; also recorded: demonstrated antagonism | 55% | 18% | 18% | do not exhibit an antagonistic effect | 42% | 1% | 20% | do not exhibit an antagonistic effect |
